One series addresses T1, α7 nAChR (Mus musculus, UniProt P49582).
T1 construct: endogenous in cells; host or cells: live neonatal (10 day-old) mice, in vivo; C57BL/6J is the strain stated for the animal experiments in general
The experiment in a line: Memantine effect on E. coli K1 (E44)-induced cAstr/cBMEC shedding in neonatal mice. It counts as in vivo. To be noted: neonatal (10 day-old) mice intraperitoneally injected with E44 and treated with MEM, P<0.001. The text has this:
(§1) Then the suspensions were collected and centrifuged.
As α7 nAChR plays an important role in CNS Inflammation induced by microbial and non-microbial factors, we have proposed that turnover and shedding of astrocytes and BMECs could be regulated by α7 nAChR. To test this hypothesis, the correlation of α7 nAChR with cAstr/cBMEC shedding and CNS inflammation induced by meningitic E. coli K1 (E44) was examined an α7 nAChR antagonist memantine (MEM) described in the experimental methods herein. In this study, neonatal (10 day-old) mice were intraperitoneally injected with E44 and treated with MEM.

The next series deals with BBB. The experiment in a line: Blood cell biomarkers, serum markers and BBB extravasation in mice treated with nicotine, METH and gp120. To be noted: for Evans blue and albumin extravasation into the brain / blood levels of CD133+/CD146+ endothelial PCs (EPCs) / blood levels of circulating Astrocytes (cAstr) / blood levels of circulating BMECs (cBMECs), CD146+/S100B+: treated mice. As for the experimental part: Nicotine tartrate (NT) and methamphetamine (METH) were purchased from Sigma-Aldrich (St. Louis, Mo.). Dynabeads® M-450 Tosylactivated was obtained from Invitrogen (Carlsbad, Calif.) and utilized for magnetic bead extraction. Ulexeuropaeus 1 (UEA I) lectin and mounting medium with 4′,6-diamidino-2-phenylindole (DAPI) were purchased from Vector (Buringame, Calif.). HIV-1 gp120 was purchased from Immunodiagnostics (Woburn, Mass.). Serum levels of molecular markers were determined by ELISA using antibodies and antigens from Creative Biomart (New York, N.Y.) (S100B) and ProteinTech (Chicago, Ill.) (ubiquitin C-terminal hydrolase 1, UCHL1). The Mfsd 2a antibody was purchased from Santa Cruz Biotechnology, Inc. (Dallas, TEXAS). All primary antibodies (Ab) were purchased from the commercial sources: a rabbit anti-α7 nAChR Ab from Genescript (Piscataway, N.J.); a rat anti-mouse Ly-6G (Gr-I) Ab; a mouse anti-CD44 Ab (sc-7297), a rabbit anti-actin (sc-7210), and a rabbit anti-GLUT1 Ab from Santa Cruz Biotechnology (Santa Cruz, Calif.); a rat anti-mouse Ly-6G (Gr-I) Ab FITC-conjugated and an anti-mouse CD146 Ab FITC-conjugated from eBiosciences (San Diego, Calif.), a rabbit anti-SIOOB Ab rhodamine-conjugated from BD Biosciences, and a rabbit anti-CD133 Ab rhodamine-conjugated from Abbiotec (San Diego, Calif.). Transwell filters (3 μm pore size, 6.5 mm diameter), blood plates and CBA assay kit were purchased from BD Biosciences (San Jose, Calif.). Chemicals were purchased from Sigma-Aldrich (St. Louis, Mo.) unless otherwise noted.
Mouse cBMECs were isolated with UIexeuropaeus 1 (UEA 1) lectin-coated Dynabeads as known by one of ordinary skill in the art. The beads were prepared according to the manufacturer's instructions (Invitrogen) and re-suspended in Hanks' balanced salt solution (HBSS. Invitrogen Corp., Carlsbad, Calif., USA) plus 5% fetal calf serum (HBSS+5% FCS) to a final concentration of 4×10^8 beads/mi. Mouse cBMECs in whole blood were affinity captured at 4TC with UEA UEA-1 coated Dynabeads. To eliminate non-specific cell binding to the beads, the cell suspensions were flushed through the pipette tip during the washing steps and then suspended in PBS by using a magnetic particle concentrator (MPC). The bound cells were incubated with 0.5M fucose for 10 min at room temperature to release the beads from target cells. The beads were then washed 5 times with HBSS+5% FBS and collected with the MPC. Then the suspensions were collected and centrifuged. The pellet was collected and affinity captured at 4-C with Msd2a-precoated Dynabeads. After blocking and washing, the cells conjugated to the beads were fixed with 2% paraformaldehyde and 0.25% glutaradehyde for 30 minutes. Then the FITC-conjugated CD146 antibody (BMECs specific marker, used for cBMEC identification) was added and incubated with the beads-bound cells overnight (dark). At last, DAPI was added and incubated with the beads-bound cells for 30 min. The cells (10 ul) were transferred to the cell counter, and counted under a florescence microscope.
Mouse astrocytes were isolated with Concanavalin A (ConA)-coated magnetic beads as known by one of ordinary skill in the art. Dynabeads™ beads were prepared according to the manufacturer's instructions (Invitrogen) and re-suspended in Hanks' balanced salt solution (HBSS, Invitrogen Corp., Carlsbad, Calif., USA) plus 5% fetal calf serum (HBSS+5% FCS) to a final concentration of 4×10^8 beads/ml. Mouse astrocytes in whole blood were affinity captured at 4° C. with ConA coated Dynabeads™. To eliminate non-specific cell binding to the beads, the cell suspensions were flushed through the pipette tip during the washing steps and then suspended in PBS by using a magnetic particle concentrator (MPC). The bound cells were incubated with 0.5M fucose for 10 min at room temperature to release the beads from target cells. The beads were then washed 5 times with HBSS+5% FBS and collected with the MPC. Then the suspensions were collected and centrifuged. […]

The subject of a further series is cAstr and cBMECs. The series can be described thus: cAstr and cBMEC density in peripheral blood of mice treated with gp120 and METH. The series is classed as in vivo, mouse. To be noted: vs controls without treatment (CON).
Source text: as §1

The results in this text go back to patent US11054422B2, “Circulating astrocytes and MFSD2A as biomarkers” (priority 2017, dated 2021).

The structures appear in SMILES notation.

T1 sequence (P49582 23-502): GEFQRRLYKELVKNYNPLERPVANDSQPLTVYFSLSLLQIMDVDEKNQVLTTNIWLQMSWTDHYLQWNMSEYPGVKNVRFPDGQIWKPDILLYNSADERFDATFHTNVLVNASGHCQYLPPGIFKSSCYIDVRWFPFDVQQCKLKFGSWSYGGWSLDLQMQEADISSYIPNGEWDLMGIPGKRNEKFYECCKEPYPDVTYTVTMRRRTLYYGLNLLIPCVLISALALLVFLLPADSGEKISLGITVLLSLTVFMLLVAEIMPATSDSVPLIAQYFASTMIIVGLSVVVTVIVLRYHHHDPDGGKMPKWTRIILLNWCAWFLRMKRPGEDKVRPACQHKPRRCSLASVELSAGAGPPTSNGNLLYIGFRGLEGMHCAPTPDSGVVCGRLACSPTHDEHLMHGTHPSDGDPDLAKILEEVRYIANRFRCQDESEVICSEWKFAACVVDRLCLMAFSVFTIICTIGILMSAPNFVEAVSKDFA

Regarding `CC12CC3CC(C)(C1)CC(N)(C3)C2` [MEM, memantine], the “shedding of cAstr (blood level)” value is “significantly block” at α7 nAChR and “reduce” on α7 nAChR (listed as memantine). Further, the results for the “shedding of cBMECs (blood level)” value on α7 nAChR and at α7 nAChR (listed as memantine) were “significantly block” and “reduce”, respectively.
For the compound `CN[C@@H](C)Cc1ccccc1` [METH, methamphetamine], in the series with BBB, the “Evans blue and albumin extravasation into the brain” value is listed as “enhanced”; the “blood levels of CD133+/CD146+ endothelial PCs (EPCs)” value was “increased blood levels”; the “blood levels of circulating Astrocytes (cAstr)” value is given as “increased blood levels”; the “blood levels of circulating BMECs (cBMECs), CD146+/S100B+” value was “increased blood levels”. Moreover, the “Astr (cAstr) shedding” value with cAstr and cBMECs (FIG. 6A) is on record as “significantly induce”. For the same compound, the cBMEC shedding entry in the series on cAstr and cBMECs (FIG. 6B) is listed as “significantly induce”.
With `CN1CCCC1c1cccnc1.O=C(O)C(O)C(O)C(=O)O` (stereo not shown) [nicotine, Nicotine tartrate], in the series with BBB (mice, ELISA), the “serum levels of S100B” value is recorded as “significantly increase” and the “serum levels of ubiquitin C-terminal hydrolase 1” value is “significantly increase”. In the series with BBB, the “Evans blue and albumin extravasation into the brain” value is reported as “enhanced”; the “blood levels of CD133+/CD146+ endothelial PCs (EPCs)” value is reported as “increased blood levels”; the “blood levels of circulating Astrocytes (cAstr)” value is “increased blood levels”; the “blood levels of circulating BMECs (cBMECs), CD146+/S100B+” value is “increased blood levels”.
